Results published in patent US8268961B2, “Antibacterial peptides and analogues thereof” (Universita Degli Studi di Siena, priority 2004, dated 2012).
Positions of bridges follow the written chain, without caps; N, C: chain ends. Chains are numbered I, II in the order given. No end group written: not given here.

Assay: Stability to plasmatic protease (HPLC)
Assay type: in vitro ADME, human
Outline: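 Linear and MAP peptides (10 mM in H2O) incubated with human plasma and serum at 37° C. for 2 and 24 hours. Reaction stopped with methanol; supernatant analysed by reverse-phase C18 HPLC (20-95% TFA/methanol gradient, 30 min) for undigested peptide.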

## I: QKKIRVRLSAKKA-OH / II: QKKIRVRLSAK / III: QKKIRVRLSA / IV: QKKIRVRLSA (amide I:11-IV:C, I:12-II:C, II:11-III:C) [M6, QKKIRVRLSA]
  Resistance to plasmatic protease: Plasma 2 h: +
  Resistance to plasmatic protease: Plasma 24 h: +
